Measurements: patent publication US9850283B2, “Macrocyclic inhibitors of the PD-1/PD-L1 and CD80(B7-1)/PD-L1 protein/protein interactions” (BRISTOL-MYERS SQUIBB COMPANY, priority 2013, dated 2017)
Where two headings read alike, the source gives them in different places. Positions of bridges follow the written chain, without caps; N, C: chain ends. Non-standard residues stand in square brackets, D forms with d. Residues, ends and D or L forms follow the SMILES beside them. ξ: configuration not given here. Phe(3,4,5-F3) = N[C@@H](Cc1cc(F)c(F)c(F)c1)C(=O)O; Phe(4-Cl) = N[C@@H](Cc1ccc(Cl)cc1)C(=O)O; Bta = N[C@@H](Cc1csc2ccccc12)C(=O)O; Hyp = O=C(O)[C@@H]1C[C@@H](O)CN1; NMeF = CN[C@@H](Cc1ccccc1)C(=O)O; 4Pal = N[C@@H](Cc1ccncc1)C(=O)O; dHyp = O=C(O)[C@H]1C[C@H](O)CN1; NMehSer = CN[C@@H](CCO)C(=O)O; NMeNle = CCCC[C@H](NC)C(=O)O; NMeM = CN[C@@H](CCSC)C(=O)O; NMeS = CN[C@@H](CO)C(=O)O; dPip = O=C(O)[C@H]1CCCCN1; NMeA = CN[C@@H](C)C(=O)O; Orn = NCCC[C@H](N)C(=O)O; Dab = NCC[C@H](N)C(=O)O; Dap = NC[C@H](N)C(=O)O; ξC = NC(CS)C(=O)O; Sar = CNCC(=O)O

Experiments:
Human PD-L1/PD-1 = biological target: T1, Human PD-L1/PD-1 (Homo sapiens, UniProt Q9NZQ7); test: HTRF PD-1-Ig/PD-L1-His binding assay (human PD-L1); details: cluster symbol; read-out: HTRF IC50 cluster
T1 construct: made in house; host or cells: HEK293T
T1 sequence (Q9NZQ7 with tags, fused parts or gaps): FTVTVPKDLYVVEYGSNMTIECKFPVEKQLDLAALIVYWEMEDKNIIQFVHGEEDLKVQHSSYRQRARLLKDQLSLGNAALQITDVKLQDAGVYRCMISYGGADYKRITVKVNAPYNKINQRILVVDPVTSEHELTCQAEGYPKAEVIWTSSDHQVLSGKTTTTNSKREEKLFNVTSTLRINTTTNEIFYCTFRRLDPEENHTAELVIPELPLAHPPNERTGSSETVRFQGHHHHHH
In short: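 Ig- and His-fused extracellular PD-1/PD-L1 binding in BSA/Tween-20 dPBS. HTRF with Eu anti-Ig (1 nM final) and APC anti-His (20 nM final).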

[1] = biological target: T2, LK35.2-hPD-L1 cells / PE-labeled PD-1-Ig (Homo sapiens, UniProt Q9NZQ7); test: LK35.2-hPD-L1 cell binding high-content screening assay; format: cell-based; details: cluster symbol, read-out: CBA IC50 cluster
T2 construct: expressed in transfected cells; host or cells: LK35.2 mouse B cell line
T2 sequence (Q9NZQ7 19-290): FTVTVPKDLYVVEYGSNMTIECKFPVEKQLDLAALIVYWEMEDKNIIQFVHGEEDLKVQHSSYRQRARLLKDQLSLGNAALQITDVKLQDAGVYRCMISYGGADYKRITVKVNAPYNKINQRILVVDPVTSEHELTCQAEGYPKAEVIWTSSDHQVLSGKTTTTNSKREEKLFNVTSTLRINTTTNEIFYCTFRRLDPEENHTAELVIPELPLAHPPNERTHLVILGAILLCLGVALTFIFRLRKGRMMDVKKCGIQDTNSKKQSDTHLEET
In short: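 Readout: high-content imaging of PE-PD-1-Ig bound to LK35.2-hPD-L1 cells. Cells plated overnight (RPMI/10% FCS); compound + 1 nM PE-PD-1-Ig, 1 h, 37 °C; 3× dPBS wash before imaging.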

[2] = cell line of CBA not given (LK35.2-hPD-L1 or 293T-hPD-L1)
[3] = cell binding assay, cell line not given

Structure (SMILES) | IC50 (Human PD-L1/PD-1) | IC50 [1, 2] | IC50 [1, 3]
CCCC[C@H]1C(=O)N(C)[C@@H](CCCC)C(=O)N[C@@H](CN)C(=O)N[C@H](C(=O)NCC(N)=O)CSCC(=O)N[C@@H](Cc2ccc(O)cc2)C(=O)N(C)[C@@H](C)C(=O)N[C@@H](CC(N)=O)C(=O)N2CCC[C@H]2C(=O)N[C@@H](CN)C(=O)N[C@@H](CC(=O)O)C(=O)N2C[C@H](O)C[C@H]2C(=O)N[C@@H](Cc2c[nH]c3ccccc23)C(=O)N[C@@H](CCN)C(=O)N[C@@H](Cc2csc3ccccc23)C(=O)N1C [Example 1226] ({CH2CO}-Y[NMeA]NP[Dap]D[Hyp]W[Dab][Bta][NMeNle][NMeNle][Dap]CG-NH2; thioether N-14) | 0.385 to 6.74 nM | 0.158 to 4.71 nM | 
CCCC[C@H]1C(=O)N(C)[C@@H](CCCC)C(=O)N[C@@H](CCC(=O)O)C(=O)N[C@H](C(=O)NCC(N)=O)CSCC(=O)N[C@@H](Cc2ccc(O)cc2)C(=O)N(C)[C@@H](C)C(=O)N[C@@H](CCN)C(=O)N2CCC[C@H]2C(=O)N[C@@H](CO)C(=O)N[C@@H](CCC(=O)O)C(=O)N2C[C@H](O)C[C@H]2C(=O)N[C@@H](Cc2c[nH]c3ccccc23)C(=O)N[C@@H](CCCCN)C(=O)N[C@@H](Cc2c[nH]c3ccccc23)C(=O)N1C [Example 5085] ({CH2CO}-Y[NMeA][Dab]PSE[Hyp]WKW[NMeNle][NMeNle]ECG-NH2; thioether N-14) | 0.385 to 6.74 nM |  | 0.158 to 4.71 nM
CCCC[C@H]1C(=O)N[C@@H](CCCNC(=N)N)C(=O)NC(C(=O)NCC(N)=O)CSCC(=O)N[C@@H](Cc2ccc(O)cc2)C(=O)N(C)[C@@H](C)C(=O)N[C@@H](CC(N)=O)C(=O)N2CCC[C@H]2C(=O)N[C@@H](CN)C(=O)N[C@@H](CC(C)C)C(=O)N2C[C@H](O)C[C@H]2C(=O)N[C@@H](Cc2c[nH]c3ccccc23)C(=O)N[C@@H](CO)C(=O)N[C@@H](Cc2csc3ccccc23)C(=O)N(C)[C@@H](CCSC)C(=O)N1C (stereo partly shown) [Example 9092] ({CH2CO}-Y[NMeA]NP[Dap]L[Hyp]WS[Bta][NMeM][NMeNle]R[ξC]G-NH2; thioether N-14) | 6.76 to 30.3 nM |  | 0.158 to 4.71 nM
CCCC[C@H]1C(=O)N(C)CC(=O)N[C@@H](CC(N)=O)C(=O)N[C@@H](C(C)C)C(=O)N(C)[C@@H](Cc2ccccc2)C(=O)N[C@@H](Cc2ccc(O)cc2)C(=O)N(C)CC(=O)N[C@@H](Cc2c[nH]c3ccccc23)C(=O)N[C@@H](Cc2ccc(O)cc2)C(=O)N[C@@H](CCCN)C(=O)N[C@H](C(=O)NCC(N)=O)CSCC(=O)N[C@@H](Cc2cc(F)c(F)c(F)c2)C(=O)N(C)[C@@H](Cc2ccccc2)C(=O)N1C [Example 3181] ({CH2CO}-[Phe(3,4,5-F3)][NMeF][NMeNle][Sar]NV[NMeF]Y[Sar]WY[Orn]CG-NH2; thioether N-13) | 0.385 to 6.74 nM | 0.158 to 4.71 nM | 
CCCC[C@H]1C(=O)N(C)[C@@H](CCCC)C(=O)N[C@@H](CCCNC(=N)N)C(=O)N[C@H](C(=O)NCC(N)=O)CSCC(=O)N[C@@H](Cc2ccc(O)cc2)C(=O)N(C)[C@@H](C)C(=O)N[C@@H](CC(N)=O)C(=O)N2CCC[C@H]2C(=O)N[C@@H](Cc2ccncc2)C(=O)N[C@@H](CC(C)C)C(=O)N2C[C@H](O)C[C@H]2C(=O)N[C@@H](Cc2c[nH]c3ccccc23)C(=O)N[C@@H](CO)C(=O)N[C@@H](Cc2c[nH]c3ccccc23)C(=O)N1C [Example 7028] ({CH2CO}-Y[NMeA]NP[4Pal]L[Hyp]WSW[NMeNle][NMeNle]RCG-NH2; thioether N-14) | 6.76 to 30.3 nM |  | 0.158 to 4.71 nM
CCCC[C@H]1C(=O)N(C)[C@@H](CCCC)C(=O)N[C@@H](C)C(=O)N[C@H](C(=O)NCC(N)=O)CSCC(=O)N[C@@H](Cc2ccc(O)cc2)C(=O)N(C)[C@@H](C)C(=O)N[C@@H](CC(=O)O)C(=O)N2CCC[C@H]2C(=O)N[C@@H](Cc2cnc[nH]2)C(=O)N[C@@H](CCCNC(C)=O)C(=O)N2C[C@H](O)C[C@H]2C(=O)N[C@@H](Cc2c[nH]c3ccccc23)C(=O)N[C@@H](CO)C(=O)N[C@@H](Cc2c[nH]c3ccccc23)C(=O)N1C [Example 1156] ({CH2CO}-Y[NMeA]DPH[Orn](Ac)[Hyp]WSW[NMeNle][NMeNle]ACG-NH2; thioether N-14) | 0.385 to 6.74 nM | 0.158 to 4.71 nM | 
CCCC[C@H]1C(=O)N2C[C@@H](O)C[C@@H]2C(=O)N[C@@H](CC(N)=O)C(=O)N[C@@H](C(C)C)C(=O)N(C)[C@@H](Cc2ccccc2)C(=O)N[C@@H](Cc2ccc(O)cc2)C(=O)N2CCCC[C@@H]2C(=O)N[C@@H](Cc2c[nH]c3ccccc23)C(=O)N[C@@H](Cc2ccc(O)cc2)C(=O)N[C@@H](CCCN)C(=O)N[C@H](C(=O)NCC(N)=O)CSCC(=O)N[C@@H](Cc2cc(F)c(F)c(F)c2)C(=O)N(C)[C@@H](Cc2ccccc2)C(=O)N1C [Example 3613] ({CH2CO}-[Phe(3,4,5-F3)][NMeF][NMeNle][dHyp]NV[NMeF]Y[dPip]WY[Orn]CG-NH2; thioether N-13) | 0.385 to 6.74 nM |  | 0.158 to 4.71 nM
CCCC[C@H]1C(=O)N(C)[C@@H](COCC)C(=O)N[C@@H](CCCNC(=N)N)C(=O)NC(C(=O)NCC(N)=O)CSCC(=O)N[C@@H](Cc2ccc(O)cc2)C(=O)N(C)[C@@H](C)C(=O)N[C@@H](CC(N)=O)C(=O)N2CCC[C@H]2C(=O)N[C@@H](Cc2cnc[nH]2)C(=O)N[C@@H](CC(C)C)C(=O)N2C[C@H](O)C[C@H]2C(=O)N[C@@H](Cc2c[nH]c3ccccc23)C(=O)N[C@@H](CO)C(=O)N[C@@H](Cc2csc3ccccc23)C(=O)N1C (stereo partly shown) [Example 9042] ({CH2CO}-Y[NMeA]NPHL[Hyp]WS[Bta][NMeNle][NMeS](Et)R[ξC]G-NH2; thioether N-14) | 0.385 to 6.74 nM |  | 0.158 to 4.71 nM
CCCC[C@H]1C(=O)N(C)[C@@H](CCCC)C(=O)N[C@@H](CCCNC(=N)N)C(=O)N[C@H](C(=O)NCC(N)=O)CSCC(=O)N[C@@H](Cc2ccccc2)C(=O)N(C)[C@@H](C)C(=O)N[C@@H](CC(N)=O)C(=O)N2CCC[C@H]2C(=O)N[C@@H](Cc2cnc[nH]2)C(=O)N[C@@H](CC(C)C)C(=O)N(C)CC(=O)N[C@@H](Cc2c[nH]c3ccccc23)C(=O)N[C@H](C)C(=O)N[C@@H](Cc2c[nH]c3ccccc23)C(=O)N1C [Example 1061] ({CH2CO}-F[NMeA]NPHL[Sar]W[dA]W[NMeNle][NMeNle]RCG-NH2; thioether N-14) | > 30.5 nM | > 74.3 nM | 

Second part, the compound after the results:

IC50 (Human PD-L1/PD-1) | IC50 [1, 2] | IC50 [1, 3] | Structure (SMILES)
> 30.5 nM | > 74.3 nM |  | CCCC[C@H]1C(=O)N(C)[C@@H](CCCC)C(=O)N[C@@H](CCCNC(=N)N)C(=O)N[C@H](C(=O)NCC(N)=O)CSCC(=O)N[C@@H](Cc2ccc(O)cc2)C(=O)N2CCC[C@@H]2C(=O)N[C@@H](CC(N)=O)C(=O)N2CCC[C@H]2C(=O)N[C@@H](Cc2cnc[nH]2)C(=O)N[C@@H](CC(C)C)C(=O)N2CCC[C@H]2C(=O)N[C@@H](Cc2c[nH]c3ccccc23)C(=O)N[C@@H](CO)C(=O)N[C@@H](Cc2c[nH]c3ccccc23)C(=O)N1C [Example 1137] ({CH2CO}-Y[dP]NPHLPWSW[NMeNle][NMeNle]RCG-NH2; thioether N-14)
6.76 to 30.3 nM |  | 4.78 to 72.9 nM | CCCC[C@H]1C(=O)N(C)[C@@H](CCCC)C(=O)N[C@@H](CCCNC(=N)N)C(=O)NC(C(=O)NCC(N)=O)CSCC(=O)N[C@@H](Cc2ccc(O)cc2)C(=O)N(C)[C@@H](CO)C(=O)N[C@@H](CC(N)=O)C(=O)N2CCC[C@H]2C(=O)N[C@@H](Cc2cnc[nH]2)C(=O)N[C@@H](CC(C)C)C(=O)N2CCC[C@H]2C(=O)N[C@@H](Cc2c[nH]c3ccccc23)C(=O)N[C@@H](CO)C(=O)N[C@@H](Cc2csc3ccccc23)C(=O)N1C (stereo partly shown) [Example 9035] ({CH2CO}-Y[NMeS]NPHLPWS[Bta][NMeNle][NMeNle]R[ξC]G-NH2; thioether N-14)
0.385 to 6.74 nM |  | 0.158 to 4.71 nM | CCCC[C@H]1C(=O)N(C)[C@@H](CCCC)C(=O)N[C@@H](CCCNC(=N)N)C(=O)NC(C(=O)NCC(N)=O)CSCC(=O)N[C@@H](Cc2ccc(O)cc2)C(=O)N(C)[C@@H](CO)C(=O)N[C@@H](CC(N)=O)C(=O)N2CCC[C@H]2C(=O)N[C@@H](Cc2cnc[nH]2)C(=O)N[C@@H](CC(C)C)C(=O)N2C[C@H](O)C[C@H]2C(=O)N[C@@H](Cc2c[nH]c3ccccc23)C(=O)N[C@@H](CO)C(=O)N[C@@H](Cc2c[nH]c3ccccc23)C(=O)N1C (stereo partly shown) [Example 9036]
6.76 to 30.3 nM |  | 4.78 to 72.9 nM | CCCC[C@H]1C(=O)N[C@@H](CCCNC(=N)N)C(=O)NC(C(=O)NCC(N)=O)CSCC(=O)N[C@@H](Cc2ccc(O)cc2)C(=O)N(C)[C@@H](C)C(=O)N[C@@H](CC(=O)O)C(=O)N2CCC[C@H]2C(=O)N[C@@H](Cc2cnc[nH]2)C(=O)N[C@@H](CC(C)C)C(=O)N2CCC[C@H]2C(=O)N[C@@H](Cc2c[nH]c3ccccc23)C(=O)N[C@@H](CO)C(=O)N[C@@H](Cc2csc3ccccc23)C(=O)N(C)[C@@H](CCOC)C(=O)N1C (stereo partly shown) [Example 9009] ({CH2CO}-Y[NMeA]DPHLPWS[Bta][NMehSer](Me)[NMeNle]R[ξC]G-NH2; thioether N-14)
6.76 to 30.3 nM | 4.78 to 72.9 nM |  | CCCC[C@H]1C(=O)N(C)[C@@H](CCCC)C(=O)N[C@@H](CCCNC(=N)N)C(=O)N[C@H](C(=O)NCC(N)=O)CSCC(=O)N[C@@H](Cc2ccc(Cl)cc2)C(=O)N(C)[C@@H](C)C(=O)N[C@@H](CC(N)=O)C(=O)N2CCC[C@H]2C(=O)N[C@@H](Cc2cnc[nH]2)C(=O)N[C@@H](CC(C)C)C(=O)N2CCC[C@H]2C(=O)N[C@@H](Cc2c[nH]c3ccccc23)C(=O)N[C@@H](CO)C(=O)N[C@@H](Cc2csc3ccccc23)C(=O)N1C [Example 1124] ({CH2CO}-[Phe(4-Cl)][NMeA]NPHLPWS[Bta][NMeNle][NMeNle]RCG-NH2; thioether N-14)
